Measurements taken from US11150255B2, “Additive channels” (Emulate Inc., priority 2016, dated 2021).
“Also recorded” adds a separate entry of the source. Positions of bridges follow the written chain, without caps; N, C: chain ends. Non-standard residues stand in square brackets, D forms with d. Residues, ends and D or L forms follow the SMILES beside them. hArg = N=C(N)NCCCC[C@H](N)C(=O)O; Mpa = O=C(O)CCS

Assays:
[1] = test system: platelets in human whole blood over HUVEC endothelium; assay: Vessel-On-Chip blood perfusion, platelet coverage by fluorescence imaging; type: cell-based; details: for platelet aggregation / platelet coverage: TNF-α 50 ng/ml 6 hours endothelial pre-treatment or sCollagen 10 μg/ml in blood, vs blood alone; for platelet aggregate formation / platelet coverage: hu5C8 240 μg/ml, sCD40L 10 ng/ml, untreated endothelium, 60 μl/minute, vs untreated blood
Experimental: (§1) Briefly, human blood was drawn in citrate buffer and used within 4 hours. Platelets were stained using fluorescently labeled non-blocking antibodies for the platelet surface marker CD41 and low dosages of fluorescent fibrinogen were added in order to visualize fibrin deposition. Blood was re-calcified in order to re-establish the full coagulation potential, then introduced in the biomimetic vessel-on-chip from the main inlet (embodiments of inlets shown in FIG. 18A-1, FIG. 18A-2 and FIG. 19C). The outlet of the chip was connected to a pulling syringe pump with a system of tubing and connectors made of medical grade silicon that excludes any metal components or potential causes of platelet activation (FIG. 5A).
(§2) After 14 minutes of perfusion, the flow was interrupted and the chips were immediately imaged via fluorescence microscopy (FIG. 18C and FIG. 19D). In healthy conditions, endothelial cells will provide an antithrombotic surface where blood can flow smoothly, and indeed we detected minimal platelet adhesion or fibrin deposition in our vessel-on-chip after blood perfusion in control conditions, FIG. 18C, Blood.
Platelets were labeled with human CD41-PE antibody (10 μL/ml, Invitrogen) directly added to the blood and incubated at room temperature for 5 minutes.
A medical grade plastic reservoir was mounted on the chip, then 800 μl of the blood sample was pipetted into the reservoir. The chip was perfused with the blood by withdrawing it at a rate of 60 μl/minute using a syringe pump. The citrated blood was re-calcified 2 minutes after the beginning of each experiment by adding 100 μl/ml of a solution containing 100 mM calcium chloride and 75 mM magnesium chloride to the blood to permit calcium- and magnesium-dependent platelet function and coagulation.
(§3) Chips perfused with blood samples were immediately imaged via fluorescence microscopy (Olympus IX83, 10× objective UPLFLN10×2, Orca-Flash4.0 CMOS Camera). Each chamber was inspected along its entire length and S images (about 0.25 cm) were captured from the central area of the chamber. Image processing and quantification was performed with an automatic macro compiled in ImageJ and numerical values corresponding to platelet coverage or fibrin florescence were collected and statistically analyzed in Graphpad Prism V7.
(§4) A percentage of signal coverage (or Platelet coverage) was computed from the binary image as the ratio of bright pixels to the total number of pixels in the image. Image processing and quantification was performed with an automatic macro compiled in ImageJ in order to ensure unbiased signal measurements. Numerical values corresponding to platelet coverage or fibrin fluorescence (signal intensity) were collected and statistically analyzed in Graphpad Prism V7.

[2] = test system: fibrin deposition on the endothelium; assay: Vessel-On-Chip blood perfusion, fibrin deposition by fluorescent fibrinogen imaging; type: cell-based, human; details: for fibrin deposition / fibrin signal intensity: TNF-α 50 ng/ml 6 hours endothelial pre-treatment or sCollagen 10 μg/ml in blood, vs blood alone; for fibrin deposition / fibrin clot formation: hu5C8 240 μg/ml, sCD40L 10 ng/ml, untreated endothelium, 60 μl/minute, vs untreated blood
Experimental: as §1, §2
When analyzing the formation of fibrin, […] of fluorescently labeled fibrinogen (Alexa 488, Invitrogen) was also added to the blood. While fluorescent fibrinogen was barely detected as a diffused fluorescence, fibrin deposition on inflamed cells and sparse clots was easily distinguished since fibrin formed filamentous structures produce a signal intensity that is clearly observed above a background threshold.
as §3, §4

FcγRIIa = assay: Vessel-On-Chip thrombosis, all endpoints (platelet coverage, fibrin deposition, TAT); type: cell-based, human; details: for hu5C8-mediated thrombosis on-chip (platelet coverage, fibrin deposition, TAT): with sCD40L 10 ng/ml, IV.3 1 μg/ml pre-incubation or IgG2σ variant in place of hu5C8
[3] = test system: thrombin anti-thrombin complex (TAT); assay: Thrombin anti-thrombin (TAT) ELISA in chip effluent plasma; type: cell-based, human; details: TNF-α endothelial pre-treatment or sCollagen in blood; outflow samples
Experimental: Thrombin converts fibrinogen into fibrin during clot formation, and anti-thrombin plays a role in maintaining homeostasis by inhibiting the effect of thrombin. Formation of TAT in the microdevice confirms that local and intrinsic generation of thrombin, a potent platelet agonist, occurs in the model and that counter regulatory mechanisms for coagulation are retained. Thus, blood sampled from the Vessel-On-Chip was analyzed for thrombin anti-thrombin complex (TAT), an accepted clinical biomarker for procoagulation^48,49. […] An enzyme-linked immunosorbant assay (ELISA) was used to quantify the thrombin anti-thrombin complex (TAT).
Thrombin Anti-Thrombin (TAT) levels were analyzed in plasma from blood flowing out of the chip device by removing a sample from the outflow port. Thus TAT levels were evaluated in sample effluents collected from the outflow port of the chip using the Human TAT ELISA Kit (Siemens Healthineers) according to the user manual.
Blood sampled from the Vessel-On-Chip outflow port was analyzed for thrombin anti-thrombin complex (TAT), a factor released upon activation of the coagulation cascade and one of the biomarkers associated with thrombotic events occurring in patients affected with deep vein thrombosis (DVT) or SLE^45,46. […] An enzyme-linked immunosorbant assay (ELISA) was used to quantify the thrombin anti-thrombin complex (TAT).

patients = details: hu5C8: lupus nephritis study; IDEC-131: Crohn's disease trial; cited from earlier work
[4] = Eptifibatide 2 ug/ml, endothelium inflamed with TNF-α, n=4

Molecule: N=C(N)NCCCC[C@@H]1NC(=O)CCSSC[C@@H](C(N)=O)NC(=O)[C@@H]2CCCN2C(=O)[C@H](Cc2c[nH]c3ccccc23)NC(=O)[C@H](CC(=O)O)NC(=O)CNC1=O [Eptifibatide] ([Mpa][hArg]GDWPC-NH2; disulfide 1-7)
- inhibitory effect on platelet aggregation and fibrin clot formation ([1]; Eptifibatide 2 ug/ml, blood treated with sCollagen, n=4): comparatively modest
- platelet aggregation [1, 4]: significantly inhibited
- platelet adhesion (image analysis of multiple experiments) ([1]; Eptifibatide 2 ug/ml, n=4): completely inhibited
- platelet coverage in stimulated, pro-thrombotic conditions ([1]; TNF-α or sCollagen, with Eptifibatide, FIG. 18E-1, n=4 donors): suppressed
- fibrin clot formation [2, 4]: significantly inhibited
- fibrin signal (image analysis of multiple experiments) ([2]; Eptifibatide 2 ug/ml, samples treated with TNF-α, n=4): a significant amount of fibrin signal was still detectable
- fibrin deposition in stimulated, pro-thrombotic conditions ([2]; TNF-α or sCollagen, with Eptifibatide, FIG. 18E-2, n=4 donors): suppressed
- thrombotic events recapitulated in the system (FcγRIIa; clinically relevant dosages of Eptifibatide): inhibited

Molecule: TNF-α
- platelet aggregation / platelet coverage [1]: increased; also recorded: high number of larger aggregates
- fibrin deposition / fibrin signal intensity [2]: increased
- levels of TAT [3]: significantly increased; also recorded: elevated levels

Molecule: hu5C8 (IgG2σ): IgG2σ variant of hu5C8 with an engineered Fc region that eliminates affinity for the FcγRIIa
- hu5C8-mediated thrombosis on-chip (platelet coverage, fibrin deposition, TAT) (FcγRIIa): did not show signs of thrombosis
- hu5C8-mediated thrombosis on-chip (platelet coverage, fibrin deposition, TAT) (FcγRIIa; listed as IgG2σ): suppressed
- hu5C8-mediated thrombosis on-chip (platelet coverage, fibrin deposition, TAT) (FcγRIIa; listed as hu5C8-IgG2σ): not detected

Molecule: hu5C8: humanized monoclonal IgG1 antibody against CD40L, alternatively named anti-sCD40L or anti-CD154
- platelet aggregate formation / platelet coverage [1]: no significant treatment-related effects
- fibrin deposition / fibrin clot formation [2]: no significant treatment-related effects
- incidence of thromboembolic events in clinical study (patients): 2/18

Molecule: sCD40L: Recombinant human sCD40 Ligand
- platelet aggregate formation / platelet coverage [1]: no significant treatment-related effects; also recorded: not statistically significant
- increase in platelet coverage in some donors, fold over untreated control ([1]; sCD40L alone): about 2 fold
- fibrin deposition / fibrin clot formation [2]: no significant treatment-related effects

Molecule: sCollagen: soluble collagen (Soluble Calf Skin, Type I), a standard platelet activator
- platelet aggregation / platelet coverage [1]: increased; also recorded: high number of larger aggregates
- fibrin deposition / fibrin signal intensity [2]: increased
- levels of TAT [3]: minimally increased; also recorded: elevated levels
